The text below walks through data of patent publication US8969388B1, “Substituted pyrazolone compounds and methods of use” (Calitor Sciences, LLC, priority 2012, dated 2015).

One data set deals with T1, c-Met (h) (Homo sapiens, UniProt P08581).
T1 construct: host or cells: E. coli BL21-derived host (T7 phage) or HEK-293
Kind of data set: KINOMEscan competition binding assay, c-Met (h). The procedure: (§1) Alternatively, the kinase activities of the compounds can be measured using KINOMEscan™, which is based on a competition binding assay that quantitatively measures the ability of a compound to compete with an immobilized, active-site directed ligand. The assay was performed by combining three components: DNA-tagged kinase; immobilized ligand; and a test compound. The ability of the test compound to compete with the immobilized ligand was measured via quantitative PCR of the DNA tag.
(§2) For most assays, kinase-tagged T7 phage strains were prepared in an E. coli host derived from the BL21 strain. E. coli were grown to log-phase and infected with T7 phage and incubated with shaking at 32° C. until lysis. The lysates were centrifuged and filtered to remove cell debris. The remaining kinases were produced in HEK-293 cells and subsequently tagged with DNA for qPCR detection. Streptavidin-coated magnetic beads were treated with biotinylated small molecule ligands for 30 minutes at room temperature to generate affinity resins for kinase assays. The liganded beads were blocked with excess biotin and washed with blocking buffer (SEABLOCK™ (Pierce), 1% BSA, 0.05% TWEEN®20, 1 mM DTT) to remove unbound ligand and to reduce nonspecific binding. Binding reactions were assembled by combining kinases, liganded affinity beads, and test compounds in 1× binding buffer (20% SEABLOCK™, 0.17×PBS, 0.05% TWEEN®20, 6 mM DTT). All reactions were performed in polystyrene 96-well plates in a final volume of 0.135 mL. The assay plates were incubated at room temperature with shaking for 1 hour and the affinity beads were washed with wash buffer (1×PBS, 0.05% TWEEN®20). The beads were then re-suspended in elution buffer (1×PBS, 0.05% TWEEN®20, 0.5 μM non-biotinylated affinity ligand) and incubated at room temperature with shaking for 30 minutes. The kinase concentration in the eluates was measured by qPCR.
(§3) The kinase assays described herein were performed using KINOMEscan™ Profiling Service at DiscoveRx Corporation, 42501 Albrae St. Fremont, Calif.

The target in a further data set is T2, KDR (h) (Homo sapiens, UniProt P35968).
T2 construct: host or cells: E. coli BL21-derived host (T7 phage) or HEK-293
Kind of data set: KINOMEscan competition binding assay, KDR (h). As to the method:
as §1, §2, §3

Data set [1] in a line: Pharmacokinetics after intravenous and oral administration in rats. The data set is classed as in vivo. The settings on record: for F: oral bioavailability, oral dose not given; for AUC(0-t) / half-life / Vd: rat, plasma; for clearance (CL) after iv dosing / AUC(0-t) / half-life / Vd: iv dosing; for Vd: read-out: Vss. The procedure:
The compounds disclosed herein are assessed in pharmacokinetic studies in mice, rats, dogs or monkeys. The compounds are administered as a water solution, 2% HPMC+1% TWEEN®80 in water solution, 5% DMSO+5% solutol in saline, 4% MC suspension or capsule. For the intravenous administration, the animals are generally given at 1 or 2 mg/kg dose. For the oral (p.o.) dosing, mice and rats are generally given 5 or 10 mg/kg dose, and dogs and monkeys are generally given 10 mg/kg dose. The blood samples (0.3 mL) are drawn at 0.25, 0.5, 1.0, 2.0, 3.0, 4.0, 6.0, 8.0, 12 and 24 h time points or 0.083, 0.25, 0.5, 1.0, 2.0, 4.0, 6.0, 8.0 and 24 h time points and centrifuged at 3,000 or 4000 rpm for 2 to 10 min. The plasma solutions are collected, stored at −20° C. or −70° C. until analyzed by LC/MS/MS as described above.

The next data set deals with U87MG glioblastoma cells. Kind of data set: U87MG tumor xenograft model, tumor growth inhibition. Type of data set: in vivo, athymic nude mice (BALB/cA nu/nu). The settings on record: mice, oral gavage, 12 days. The procedure:
The efficacy of compounds disclosed herein was evaluated in a standard murine model of tumorigenesis. Human tumor cells (U87MG glioblastoma cells from ATCC) were expended in culture, harvested, and injected subcutaneously onto the rear flank of 6-7 week old female athymic nude mice (BALB/cA nu/nu, Hunan SLAC Laboratory Animal, Co.) (n=6-10 for vehicle group and for each dosing group). When tumors reached a volume of 100-250 mm^3, animals were randomly divided into vehicle control (for example, 5% DMSO+70% Captisol® (30%), 7% HCl (pH1), 18% Captisol® (30%); or 7% DMSO, 7% HCl (pH1), 70% Captisol® (30%), 16% Captisol® (30%), or the like) and compound groups. Subsequent administration of compound by oral gavage begins anywhere from day 0 to day 15 post tumor cell challenge and generally continues with once a day for the duration of the experiment.
Progression of tumor growth is assessed by tumor volumes and recorded as a function of time. The long (L) and short (W) axes of the subcutaneous tumors were measured with calipers twice weekly, and the tumor volume (TV) calculated as (L×W^2)/2). TGI was calculated from the difference between the median tumor volumes of vehicle-treated and drug-treated mice, expressed as a percentage of the median tumor volume of the vehicle-treated control group, by the following relation:
[formula] Initial statistical analysis is done by repeated measures analysis of variance (RMANOVA), followed by Scheffe psot hoc testing for multiple comparisons. Vehicle alone (5% DMSO+70% Captisol® (30%), 7% HCl (pH1), 18% Captisol® (30%); or 7% DMSO, 7% HCl (pH1), 70% Captisol® (30%), 16% Captisol® (30%), or the like) is the negative control.

SMILES strings stand for the structures. pKd: −log10 of the molar value. Read-outs that look alike come from different tables or passages of the source.

T2 sequence (P35968 20-1356): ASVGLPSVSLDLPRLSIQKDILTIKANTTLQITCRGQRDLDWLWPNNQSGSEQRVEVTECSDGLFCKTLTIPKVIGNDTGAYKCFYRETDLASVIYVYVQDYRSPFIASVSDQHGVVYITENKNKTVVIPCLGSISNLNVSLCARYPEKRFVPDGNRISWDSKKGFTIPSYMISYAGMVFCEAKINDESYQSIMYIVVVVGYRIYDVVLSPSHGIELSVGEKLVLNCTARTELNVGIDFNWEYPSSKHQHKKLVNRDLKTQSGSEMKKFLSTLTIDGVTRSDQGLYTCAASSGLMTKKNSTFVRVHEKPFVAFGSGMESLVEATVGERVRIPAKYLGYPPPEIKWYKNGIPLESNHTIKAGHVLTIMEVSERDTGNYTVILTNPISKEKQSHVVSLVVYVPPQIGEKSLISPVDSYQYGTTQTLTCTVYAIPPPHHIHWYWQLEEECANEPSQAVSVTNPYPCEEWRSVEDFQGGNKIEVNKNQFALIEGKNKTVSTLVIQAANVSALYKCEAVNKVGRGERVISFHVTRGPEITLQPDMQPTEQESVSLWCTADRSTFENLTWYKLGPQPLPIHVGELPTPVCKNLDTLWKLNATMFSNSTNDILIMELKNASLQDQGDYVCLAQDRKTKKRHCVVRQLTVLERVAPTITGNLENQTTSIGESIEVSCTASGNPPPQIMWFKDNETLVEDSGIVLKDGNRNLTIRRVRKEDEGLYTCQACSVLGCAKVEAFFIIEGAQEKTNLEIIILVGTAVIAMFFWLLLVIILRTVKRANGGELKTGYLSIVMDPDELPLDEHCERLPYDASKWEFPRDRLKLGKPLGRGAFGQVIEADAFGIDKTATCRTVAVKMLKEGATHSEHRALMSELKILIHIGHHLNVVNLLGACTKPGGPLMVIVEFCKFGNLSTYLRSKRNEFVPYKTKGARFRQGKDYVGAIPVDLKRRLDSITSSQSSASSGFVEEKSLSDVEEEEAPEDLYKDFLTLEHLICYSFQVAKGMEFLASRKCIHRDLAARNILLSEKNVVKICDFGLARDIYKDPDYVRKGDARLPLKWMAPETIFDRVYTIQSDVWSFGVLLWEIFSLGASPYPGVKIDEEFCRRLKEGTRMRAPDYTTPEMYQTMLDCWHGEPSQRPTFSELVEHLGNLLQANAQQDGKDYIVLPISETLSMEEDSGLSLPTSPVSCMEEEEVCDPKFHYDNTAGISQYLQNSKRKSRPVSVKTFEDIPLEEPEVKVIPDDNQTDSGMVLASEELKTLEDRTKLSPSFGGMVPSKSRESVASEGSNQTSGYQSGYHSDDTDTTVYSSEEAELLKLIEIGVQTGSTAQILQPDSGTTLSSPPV
T1 sequence (P08581 25-1390): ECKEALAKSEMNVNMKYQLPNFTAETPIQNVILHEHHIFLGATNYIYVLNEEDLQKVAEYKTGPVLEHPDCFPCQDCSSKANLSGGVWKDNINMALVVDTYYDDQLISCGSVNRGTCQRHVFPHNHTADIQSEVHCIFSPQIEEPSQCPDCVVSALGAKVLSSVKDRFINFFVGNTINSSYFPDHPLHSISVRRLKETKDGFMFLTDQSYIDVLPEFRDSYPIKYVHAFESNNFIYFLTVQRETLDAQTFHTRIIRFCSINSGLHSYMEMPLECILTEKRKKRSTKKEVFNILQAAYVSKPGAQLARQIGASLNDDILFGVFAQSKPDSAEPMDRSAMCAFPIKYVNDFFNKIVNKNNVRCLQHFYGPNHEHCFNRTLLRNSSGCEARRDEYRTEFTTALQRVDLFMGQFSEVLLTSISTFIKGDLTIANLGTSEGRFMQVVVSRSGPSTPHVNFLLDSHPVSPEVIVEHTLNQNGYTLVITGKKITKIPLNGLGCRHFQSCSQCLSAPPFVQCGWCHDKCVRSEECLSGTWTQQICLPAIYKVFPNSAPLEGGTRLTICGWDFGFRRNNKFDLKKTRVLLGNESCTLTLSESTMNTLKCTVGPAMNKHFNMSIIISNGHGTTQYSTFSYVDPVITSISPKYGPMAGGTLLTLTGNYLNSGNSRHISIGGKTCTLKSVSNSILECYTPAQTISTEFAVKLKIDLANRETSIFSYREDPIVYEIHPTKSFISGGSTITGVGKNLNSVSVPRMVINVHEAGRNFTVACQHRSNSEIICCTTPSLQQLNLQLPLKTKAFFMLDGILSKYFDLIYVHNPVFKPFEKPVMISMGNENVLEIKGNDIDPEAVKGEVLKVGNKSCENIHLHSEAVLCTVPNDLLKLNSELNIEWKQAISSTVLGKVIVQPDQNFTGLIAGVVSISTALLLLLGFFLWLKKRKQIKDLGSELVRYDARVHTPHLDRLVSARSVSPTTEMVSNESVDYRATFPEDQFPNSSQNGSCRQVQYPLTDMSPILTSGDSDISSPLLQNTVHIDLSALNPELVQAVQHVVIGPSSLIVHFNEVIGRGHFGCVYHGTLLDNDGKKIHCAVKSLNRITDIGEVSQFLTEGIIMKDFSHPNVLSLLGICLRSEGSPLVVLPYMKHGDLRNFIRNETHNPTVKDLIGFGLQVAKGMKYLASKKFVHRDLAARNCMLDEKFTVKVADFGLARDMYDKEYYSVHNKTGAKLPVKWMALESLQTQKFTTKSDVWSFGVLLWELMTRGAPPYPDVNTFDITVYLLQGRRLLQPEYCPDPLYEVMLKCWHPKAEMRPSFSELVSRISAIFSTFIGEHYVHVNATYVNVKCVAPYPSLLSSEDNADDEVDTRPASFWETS

One may read the pKd as the Kd on a negative log10 scale, so that one unit is a factor of ten. The term AUC(0-t) denotes exposure summed from dosing to a finite time, without extrapolation to infinity. High values mean high exposure, low ones low exposure. For orientation: half-life means how long it takes for the measured level to halve. High values mean slow decline, low ones rapid decline. `Cc1c(C(=O)Nc2cc(F)c(Oc3ccnc(N)c3Cl)cc2F)c(=O)n(-c2ccccc2)n1C` [Ex. 11, N-(4-((2-amino-3-chloropyridin-4-yl)oxy)-2,5-difluorophenyl)-1,5-dimethyl-3-oxo-2-phenyl-2,3-dihydro-1H-pyrazole-4-carboxamide] had a negative-log Kd (pKd) at c-Met (h) of 8.85. Also, on KDR (h), the pKd is 6.47. In data set [1] (2 mg/kg), the “clearance (CL) after iv dosing” value was 0.57 L/h/kg, the AUC(0-t) was 3340 ng·h/mL, the half-life is 174 min and the Vd was found to be 1.17 L/kg. Moreover, the F in data set [1] (iv dose 2 mg/kg) is 88.0%.

For the compound `CC(=O)Nc1nccc(Oc2ccc(NC(=O)c3c(C)n(C)n(-c4ccccc4)c3=O)cc2F)c1Cl` [Ex. 4, N-(4-((2-acetamido-3-chloropyridin-4-yl)oxy)-3-fluorophenyl)-1,5-dimethyl-3-oxo-2-phenyl-2,3-dihydro-1H-pyrazole-4-carboxamide], the figures for the negative logarithm of the Kd (pKd) on c-Met (h) and on KDR (h) were 7.62 and 6.27, respectively.

As for `Cc1c(C(=O)Nc2ccc(Oc3ccnc(N)c3)cn2)c(=O)n(-c2ccccc2)n1C` [Ex. 16, N-(5-((2-aminopyridin-4-yl)oxy)pyridin-2-yl)-1,5-dimethyl-3-oxo-2-phenyl-2,3-dihydro-1H-pyrazole-4-carboxamide], the pKd is 6.70 at c-Met (h) and 5.74 on KDR (h).

Take `CC(=O)Nc1cc(Oc2ccc(NC(=O)c3c(C)n(C)n(-c4ccccc4)c3=O)c(Cl)c2)ccn1` [Ex. 13, N-(4-((2-acetamidopyridin-4-yl)oxy)-2-chlorophenyl)-1,5-dimethyl-3-oxo-2-phenyl-2,3-dihydro-1H-pyrazole-4-carboxamide]: the pKd is 7.74 on c-Met (h) and 6.24 at KDR (h).

In the case of `Cc1c(C(=O)Nc2ccc(Oc3ccnc(N)c3Cl)cn2)c(=O)n(-c2ccccc2)n1C` [Ex. 19, N-(5-((2-amino-3-chloropyridin-4-yl)oxy)pyridin-2-yl)-1,5-dimethyl-3-oxo-2-phenyl-2,3-dihydro-1H-pyrazole-4-carboxamide], the results for the negative-log Kd (pKd) on c-Met (h) and at KDR (h) were 7.80 and 7.59, respectively. Further, the entries for the “TGI % (on last day of dosing)” value in the data set with U87MG glioblastoma cells (6 mg/kg), in the data set with U87MG glioblastoma cells (20 mg/kg) and with U87MG glioblastoma cells (60 mg/kg) were 22%, 49% and 103%, respectively.

On c-Met (h), `CC(=O)Nc1cc(Oc2cc(F)c(NC(=O)c3c(C)n(C)n(-c4ccccc4)c3=O)cc2F)ccn1` [Ex. 9, N-(4-((2-acetamidopyridin-4-yl)oxy)-2,5-difluorophenyl)-1,5-dimethyl-3-oxo-2-phenyl-2,3-dihydro-1H-pyrazole-4-carboxamide] showed a negative-log Kd (pKd) of 8.74. The compound further gave a pKd on KDR (h) of 6.80. Moreover, in data set [1] (1 mg/kg), the “clearance (CL) after iv dosing” value is given as 0.04 L/h/kg, the area under the curve AUC(0-t) amounted to 23300 ng·h/mL, the half-life was 286 min and the Vd came out at 0.24 L/kg. The same compound returned a F in data set [1] (iv dose 1 mg/kg) of 61.2%.

Turning to `CC(=O)Nc1cc(Oc2ccc(NC(=O)c3c(C)n(C)n(-c4ccccc4)c3=O)cc2F)ccn1` [Ex. 23, N-(4-((2-acetamidopyridin-4-yl)oxy)-3-fluorophenyl)-1,5-dimethyl-3-oxo-2-phenyl-2,3-dihydro-1H-pyrazole-4-carboxamide], on c-Met (h), the pKd was 8.29. The same compound gave a negative-log Kd (pKd) at KDR (h) of 7.89. Moreover, in data set [1] (2 mg/kg), the “clearance (CL) after iv dosing” value turned out to be 0.03 L/h/kg, the AUC(0-t) stood at 56600 ng·h/mL, the half-life was 264 min and the Vd is 0.18 L/kg. This compound also had a F in data set [1] (iv dose 2 mg/kg) of 69.7%.

Consider `CC(=O)Nc1nccc(Oc2ccc(NC(=O)c3c(C)n(C)n(-c4ccccc4)c3=O)cc2)c1Cl` [Ex. 21, N-(4-((2-acetamido-3-chloropyridin-4-yl)oxy)phenyl)-1,5-dimethyl-3-oxo-2-phenyl-2,3-dihydro-1H-pyrazole-4-carboxamide], for which the figures for the negative-log Kd (pKd) on c-Met (h) and at KDR (h) were 6.92 and 5.96, respectively.

For the compound `CC(=O)Nc1nccc(Oc2ccc(NC(=O)c3c(C)n(C)n(-c4ccccc4)c3=O)nc2)c1Cl` [Ex. 20, N-(5-((2-acetamido-3-chloropyridin-4-yl)oxy)pyridin-2-yl)-1,5-dimethyl-3-oxo-2-phenyl-2,3-dihydro-1H-pyrazole-4-carboxamide], the pKd at c-Met (h) was 6.21; at KDR (h) it was 5.80.

With `[2H]c1cc(Oc2ccnc(N)c2)ccc1NC(=O)c1c(C)n(C)n(-c2ccccc2)c1=O` [Ex. 15, N-(4-((2-aminopyridin-4-yl)oxy)-2-deuteriumphenyl)-1,5-dimethyl-3-oxo-2-phenyl-2,3-dihydro-1H-pyrazole-4-carboxamide], the pKd at c-Met (h) is 6.74; on KDR (h), 5.42.

Regarding `Cc1c(C(=O)Nc2ccc(Oc3ccnc(N)c3)c(F)c2F)c(=O)n(-c2ccccc2)n1C` [Ex. 5, N-(4-((2-aminopyridin-4-yl)oxy)-2,3-difluorophenyl)-1,5-dimethyl-3-oxo-2-phenyl-2,3-dihydro-1H-pyrazole-4-carboxamide], the negative-log Kd (pKd) at c-Met (h) is 7.43. The negative-log Kd (pKd) on KDR (h) was 5.48. In data set [1] (2 mg/kg), the “clearance (CL) after iv dosing” value worked out at 1.87 L/h/kg, the AUC(0-t) is 1080 ng·h/mL, the half-life is 18.6 min and the Vd stood at 0.53 L/kg. Further, in data set [1] (iv dose 2 mg/kg), the F came to 19.1%.

Take `Cc1c(C(=O)Nc2ccc(Oc3ccnc(N)c3)cc2Cl)c(=O)n(-c2ccccc2)n1C` [Ex. 12, N-(4-((2-aminopyridin-4-yl)oxy)-2-chlorophenyl)-1,5-dimethyl-3-oxo-2-phenyl-2,3-dihydro-1H-pyrazole-4-carboxamide]: the negative-log Kd (pKd) at c-Met (h) is 7.25. The pKd on KDR (h) is 4.72. In addition, in data set [1] (2 mg/kg), the “clearance (CL) after iv dosing” value is on record as 0.94 L/h/kg, the AUC(0-t) turned out to be 2120 ng·h/mL, the half-life was 93.6 min and the Vd turned out to be 0.69 L/kg. Besides, the F in data set [1] (iv dose 2 mg/kg) is reported as 125.0%.

For `Cc1c(C(=O)Nc2cc(F)c(Oc3ccnc(NC(=O)N4CCOCC4)c3)cc2F)c(=O)n(-c2ccccc2)n1C` [Ex. 10, N-(4-(4-(1,5-dimethyl-3-oxo-2-phenyl-2,3-dihydro-1H-pyrazole-4-carboxamido)-2,5-difluorophenoxy)pyridin-2-yl)morpholine-4-carboxamide], in data set [1] (1 mg/kg), the “clearance (CL) after iv dosing” value is listed as 0.11 L/h/kg, the area under the curve AUC(0-t) is 9640 ng·h/mL, the half-life is 276 min and the Vd came out at 0.53 L/kg. In data set [1] (iv dose 1 mg/kg), this compound yielded an F of 83.2%.
